Tests used:
Acetylcholinesterase = Acetylcholinesterase (Electrophorus electricus, UniProt O42275); experiment: Inhibition of electric eel AChE by modified Ellman method
Cholinesterase = Cholinesterase (Homo sapiens, UniProt P06276); experiment: Inhibition of BChE
[1] = Selectivity ratio of IC50 for electric eel AChE to IC50 for BChE

Acetylcholinesterase, sequence (O42275 whole entry): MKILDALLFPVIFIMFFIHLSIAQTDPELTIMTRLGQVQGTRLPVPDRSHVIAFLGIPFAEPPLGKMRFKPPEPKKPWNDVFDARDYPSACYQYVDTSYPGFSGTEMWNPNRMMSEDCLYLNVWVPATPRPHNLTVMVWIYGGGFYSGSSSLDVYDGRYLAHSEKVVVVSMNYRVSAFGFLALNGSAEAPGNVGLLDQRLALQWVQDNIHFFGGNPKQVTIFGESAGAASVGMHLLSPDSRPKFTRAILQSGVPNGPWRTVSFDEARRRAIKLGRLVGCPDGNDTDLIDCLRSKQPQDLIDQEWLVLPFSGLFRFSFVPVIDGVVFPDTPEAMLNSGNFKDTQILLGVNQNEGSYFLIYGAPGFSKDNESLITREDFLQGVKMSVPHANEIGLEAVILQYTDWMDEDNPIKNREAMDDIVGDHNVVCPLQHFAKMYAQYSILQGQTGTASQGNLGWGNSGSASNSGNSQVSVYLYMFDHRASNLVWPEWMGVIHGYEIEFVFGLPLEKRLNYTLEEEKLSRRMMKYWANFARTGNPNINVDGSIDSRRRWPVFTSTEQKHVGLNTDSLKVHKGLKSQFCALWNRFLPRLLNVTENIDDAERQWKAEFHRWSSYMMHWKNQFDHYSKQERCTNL
Cholinesterase, sequence (P06276 whole entry): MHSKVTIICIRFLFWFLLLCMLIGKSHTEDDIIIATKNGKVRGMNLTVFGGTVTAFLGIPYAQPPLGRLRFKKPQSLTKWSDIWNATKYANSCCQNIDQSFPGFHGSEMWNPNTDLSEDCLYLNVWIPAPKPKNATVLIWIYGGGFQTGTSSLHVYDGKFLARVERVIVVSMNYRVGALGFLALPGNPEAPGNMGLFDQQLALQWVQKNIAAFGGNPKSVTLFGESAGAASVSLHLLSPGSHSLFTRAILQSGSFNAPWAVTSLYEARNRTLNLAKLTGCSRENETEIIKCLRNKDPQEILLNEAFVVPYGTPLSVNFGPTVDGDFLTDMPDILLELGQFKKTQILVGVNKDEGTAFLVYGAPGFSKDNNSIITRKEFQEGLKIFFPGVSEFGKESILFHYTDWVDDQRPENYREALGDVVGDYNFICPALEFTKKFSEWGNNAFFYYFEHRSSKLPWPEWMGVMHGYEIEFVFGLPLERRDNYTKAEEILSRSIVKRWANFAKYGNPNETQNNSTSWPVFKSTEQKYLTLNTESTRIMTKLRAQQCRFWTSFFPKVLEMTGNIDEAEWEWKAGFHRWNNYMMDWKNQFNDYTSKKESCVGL

Q: What does the source list for `C[C@@H]([C@H]1CC[C@@]2(C)[C@@H]3CC[C@H]4C(C)(C)[C@@H](NC(=O)c5ccccc5)CC[C@]4(O)CC3=CC[C@]12C)N(C)C` [N-BENZOYLBUXAHYRCANINE]?
A: IC50 (Acetylcholinesterase): > 1000 µM; IC50 (Cholinesterase): 311 µM; Ratio IC50 [1]: 3.2

Q: With `C/C=C(\C)C(=O)N[C@H]1CC[C@]2(O)CC3=CC[C@]4(C)[C@@H]([C@H](C)N(C)C)CC[C@@]4(C)[C@@H]3CC[C@H]2C1(C)C` [N-TIGLOYLBUXAHYRCANINE] as the compound, how does the IC50 (Acetylcholinesterase) read?
A: 444 µM

Q: What about the IC50 (Cholinesterase) of the same compound?
A: 31.2 µM

Q: What about the Ratio IC50 [1] of the same compound?
A: 14.2

Q: For `CC(C)C(=O)N[C@H]1CC[C@]2(O)CC3=CC[C@]4(C)[C@@H]([C@H](C)N(C)C)CC[C@@]4(C)[C@@H]3CC[C@H]2C1(C)C` [N-ISOBUTYROYLBUXAHYRCANINE], which IC50 (Acetylcholinesterase) is on record?
A: > 1000 µM

Q: What about the IC50 (Cholinesterase) of the same compound?
A: 53.7 µM

Q: And the Ratio IC50 [1]?
A: 18.6

— ChEMBL document CHEMBL1146525, “New triterpenoid alkaloid cholinesterase inhibitors from Buxus hyrcana” (J Nat Prod, 2003)
